Broadly, the IC50 is the concentration that inhibits the measured activity by half. A higher IC50 goes with weaker potency in that assay.

18 compounds from ChEMBL document CHEMBL1156336, “Synthesis, X-ray crystal structure study and antitumoral evaluations of 5,6-disubstituted pyrimidine derivatives” (Bioorg Med Chem, 2010) can be followed below.

One experiment has as its system MCF7. Nature of the experiment: Antitumor activity against human MCF7 cells after 72 hrs by MTT assay. As to conditions: MCF7, 72 h. (In general: Tetrazolium assays rely on reduction of a dye to a coloured formazan, in cell work by metabolically active cells.)
In experiment [1] the test system is SW-620. Nature of the experiment: Antitumor activity against human SW620 cells after 72 hrs by MTT assay. As to conditions: SW-620, 72 h.
The next experiment deals with MOLT-4. Nature of the experiment: Antitumor activity against human MOLT4 cells after 72 hrs by MTT assay. As to conditions: MOLT-4, 72 h.
The test system of the next experiment is NCI-H460. The experiment in a line: Antitumor activity against human H460 cells after 72 hrs by MTT assay. As to conditions: NCI-H460, 72 h.
Another experiment relates to HCT-116. The experiment in a line: Antitumor activity against human HCT116 cells after 72 hrs by MTT assay. As to conditions: HCT-116, 72 h.
The test system of experiment [2] is SW-620. Nature of the experiment: Selectivity ratio IC50 of 5-fluorouracil to compound for human SW620 cells. Type of experiment: functional.

Turning to `Cc1[nH]c(=O)[nH]c(=O)c1CCO`, the IC50 in the experiment with MCF7, in the experiment on SW-620 [1], with MOLT-4, with NCI-H460 and in the experiment with HCT-116 was more than 100 µM in each case.

Turning to `CC(=O)OCCc1c(C)nc(Cl)nc1Cl`, the IC50 in the experiment with MCF7, with SW-620 [1], in the experiment on MOLT-4, with NCI-H460 and with HCT-116 was more than 100 µM throughout.

Consider `COc1nc(C)c(CCO)c(OC)n1`, for which the IC50 with MCF7, in the experiment on SW-620 [1], in the experiment with MOLT-4, with NCI-H460 and with HCT-116 was more than 100 µM each time.

For `CC(=O)OCCc1c(C)[nH]c(=O)[nH]c1=O`, the IC50 with MCF7, in the experiment with SW-620 [1], with MOLT-4, in the experiment with NCI-H460 and in the experiment with HCT-116 was more than 100 µM throughout.

For the compound `COc1nc(C)c2c(n1)OCC2`, the IC50 in the experiment with MCF7, with SW-620 [1], with NCI-H460 and in the experiment with HCT-116 was more than 100 µM each time.

`COc1nc(C)c(CCOC(C)=O)c(OC)n1`: the IC50 turned out to be 65 µM with MCF7, 44 µM in the experiment on SW-620 [1], 47 µM with NCI-H460 and 40 µM in the experiment with HCT-116.

`COc1nc(Cl)nc(C)c1CCOC(C)=O`: the IC50 with MCF7, in the experiment with SW-620 [1], in the experiment on MOLT-4, in the experiment with NCI-H460 and with HCT-116 was more than 100 µM in each case.

`COc1nc(Cl)nc(C)c1CCO`: the IC50 with MCF7, in the experiment with SW-620 [1], in the experiment with NCI-H460 and with HCT-116 was more than 100 µM throughout.

As to `COc1ccc(C(OCCc2c(C)nc(OC)nc2OC)(c2ccccc2)c2ccccc2)cc1`, the concentration for half-maximal inhibition (IC50) came to 6 µM with MCF7; 20 µM in the experiment on SW-620 [1]; 5 µM with MOLT-4; 50 µM in the experiment on NCI-H460; 4 µM in the experiment on HCT-116.

As for `COc1nc(C)c(CCF)c(OC)n1`, the IC50 with MCF7, with SW-620 [1], in the experiment on NCI-H460 and in the experiment on HCT-116 was more than 100 µM in each case.

Regarding `COc1nc(Cl)nc(C)c1CCF`, the IC50 in the experiment with MCF7, in the experiment with SW-620 [1], in the experiment on NCI-H460 and in the experiment on HCT-116 was more than 100 µM throughout.

For the compound `Cc1nc(Cl)nc(Cl)c1CCCl`, the IC50 was determined as 8 µM in the experiment with MCF7; 0.4 µM with SW-620 [1]; 5 µM in the experiment with MOLT-4; 3 µM in the experiment on NCI-H460; 2 µM in the experiment on HCT-116. Also, the “Ratio IC50” value with SW-620 [2] is on record as 20.

On to `COc1nc(C)c(CCCl)c(OC)n1`, for which the IC50 with MCF7, in the experiment with SW-620 [1], in the experiment on MOLT-4, with NCI-H460 and in the experiment with HCT-116 was more than 100 µM each time.

For `COc1nc(CC(O)COCc2ccccc2)c(CCCl)c(OC)n1` (configuration not stated), the IC50 stood at 26 µM with MCF7; 20 µM with SW-620 [1]; 19 µM in the experiment with MOLT-4; 76 µM with NCI-H460; 16 µM in the experiment with HCT-116.

Regarding `O=c1[nH]c(CC(O)COCc2ccccc2)c(CCCl)c(=O)[nH]1` (configuration not stated), the IC50 in the experiment on MCF7, in the experiment with SW-620 [1], with MOLT-4, in the experiment with NCI-H460 and with HCT-116 was more than 100 µM throughout.

Regarding `Cc1[nH]c(=O)[nH]c(=O)c1CCCl`, the IC50 in the experiment on MCF7, in the experiment with SW-620 [1], with MOLT-4, in the experiment with NCI-H460 and with HCT-116 was more than 100 µM throughout.

Regarding `Nc1ccn([C@@H]2O[C@H](CO)[C@@H](O)[C@@H]2O)c(=O)n1` [CYTARABINE], the IC50 was not below 100 µM in the experiment on MCF7; 30 µM in the experiment with SW-620 [1]; 1 µM with MOLT-4; 0.1 µM in the experiment with NCI-H460; 0.1 µM in the experiment on HCT-116.

As for `O=c1[nH]cc(F)c(=O)[nH]1` [FLUOROURACIL], in the experiment with MOLT-4, the IC50 was 0.03 µM.
